Measurements taken from EP2924040A1, “2-Amino-1-(o-tolyl)pyrrolo[3,2-b]quinoxaline-3-carboxamide derivates” (Universität Zürich, priority 2014, dated 2015).

Tests used:
[1] = system: HOP-92; assay: Cell culture and GI50 determination (resazurin); type: cell-based; conditions: Homo sapiens; HOP-92, resazurin
Description: (§1) MDA-MB-231 (breast cancer) and KM12 (colon cancer) cells obtained from the UZH Cancer Institute, HOP-92 (lung cancer) cells purchased from the National Cancer Institute (NCl) and A498 (kidney cancer) cells obtained from Prof. Krek (Institute of Cell Biology, ETH Zurich) were cultured in Dulbecco's modified Eagle's medium (DMEM) supplemented with 10% (v/v) fetal bovine serum. K562 leukemia cells obtained from Dr. Silvio Hemmi (Institute of Molecular Life Sciences, UZH) were cultured using RPMI medium supplemented with 5% (v/v) fetal bovine serum. All the media was additionally supplemented with 100 units/mL of penicillin, 100µg/mL of streptomycin, 4.5 g/L glucose, 0.11g/L sodium pyrubate and 2mM glutamine and the cells were grown at 37 °C in 5% CO2 atmosphere with 80% relative humidity.
(§2) MDA-MB-231, HT-29, KM12, HOP-92 and A498 cells were plated at 10,000 cells per well (100 µL per well) in 96-well culture dishes and allowed to incubate for 24 h. The old media was removed, the cells were washed with PBS (phosphate-buffered saline) and fresh media was added. A 5 mmol/L solution of inhibitor (in 100% DMSO) was serially diluted in the culture media (12 different concentrations were used) and allowed to incubate for 72 h (MDA-MB-231) or 48h (A498). Control cells were treated with the same DMSO concentrations. After the incubation period the media was once more removed and the cells were washed with PBS to then be incubated with fresh media containing 86 nmol/L resazurin. After 3 hours, the fluorescence was quantified using a fluorescence microplate reader (Biotek, FLx800™) at the respective excitation and emission wavelength of 560 and 590 nm. Resazurin becomes fluorescent under mitochondrial reduction and its emission directly correlates with the metabolic stability of the cells. The measured fluorescence values were corrected from the control samples containing DMSO and GI50 values were determined by plotting the fraction of metabolically active cells against the log of the drug concentration. All measurements were performed at least in triplicate.

[2] = system: MDA-MB-231; assay: Cell culture and GI50 determination (resazurin); type: cell-based; conditions: Homo sapiens, MDA-MB-231, 72 h incubation
Description: as §1, §2

[3] = system: KM12; assay: Cell culture and GI50 determination (resazurin); type: cell-based; conditions: Homo sapiens
Description: as §1, §2

[4] = system: A498; assay: Cell culture and GI50 determination (resazurin); type: cell-based; conditions: Homo sapiens, A498, 48h incubation
Description: as §1, §2

[5] = biological target: T1, EphA3 (Homo sapiens, UniProt P29320); assay: Differential Scanning Fluorimetry; type: binding; conditions: 2 µmol/L EphA3, test compound 20 µmol/L, pH 8.0; read-out: difference in the melting temperature Tm (Δ Tm)
T1 sequence (P29320 21-983): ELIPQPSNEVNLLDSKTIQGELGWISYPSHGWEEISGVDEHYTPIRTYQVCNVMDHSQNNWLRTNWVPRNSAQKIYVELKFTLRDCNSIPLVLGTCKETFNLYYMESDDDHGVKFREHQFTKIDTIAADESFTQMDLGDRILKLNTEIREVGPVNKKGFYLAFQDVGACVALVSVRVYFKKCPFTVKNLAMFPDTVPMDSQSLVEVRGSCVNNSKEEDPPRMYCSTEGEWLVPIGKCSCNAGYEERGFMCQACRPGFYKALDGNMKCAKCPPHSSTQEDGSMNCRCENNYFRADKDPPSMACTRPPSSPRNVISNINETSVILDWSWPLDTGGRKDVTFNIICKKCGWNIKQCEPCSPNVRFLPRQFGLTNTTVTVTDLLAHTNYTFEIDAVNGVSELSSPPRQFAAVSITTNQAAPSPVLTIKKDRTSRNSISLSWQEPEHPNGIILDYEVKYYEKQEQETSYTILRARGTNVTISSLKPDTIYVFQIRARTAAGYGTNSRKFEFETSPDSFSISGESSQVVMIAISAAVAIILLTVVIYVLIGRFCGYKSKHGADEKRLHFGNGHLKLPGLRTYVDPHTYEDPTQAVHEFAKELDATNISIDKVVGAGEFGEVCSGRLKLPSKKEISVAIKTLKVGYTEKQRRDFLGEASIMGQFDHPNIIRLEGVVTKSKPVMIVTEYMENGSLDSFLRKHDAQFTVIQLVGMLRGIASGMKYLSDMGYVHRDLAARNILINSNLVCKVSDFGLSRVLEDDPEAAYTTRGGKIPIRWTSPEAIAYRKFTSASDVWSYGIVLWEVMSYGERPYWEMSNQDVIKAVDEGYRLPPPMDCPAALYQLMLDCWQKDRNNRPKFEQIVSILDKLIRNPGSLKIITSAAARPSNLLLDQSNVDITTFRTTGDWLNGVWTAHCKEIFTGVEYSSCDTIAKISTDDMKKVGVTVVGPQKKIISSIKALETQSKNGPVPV
Description: To a 2 µmol/L solution of EphA3 in 10mM Tris HCl buffer (pH 8.0) containing 100mM NaCl, 5X SYPRO Orange fluorescent dye together with the test compounds prediluted in DMSO at a concentration of 20 µmol/L (1.4% final DMSO concentration). A final volume of 40 µL was added per well in a 96-well plate and incubated at room temperature for 1 h. The plates were centrifuged for 3 min at 450 rcf. The temperature gradient was performed in the range of 25 to 75 °C (50 acquisitions per degree at a ramp rate of […]) using a LightCycler 480 Real-Time PCR System. The detection of protein unfolding was performed with an excitation wavelength of 488 nm and an emission of 580 nm. All measurements were performed in triplicate. Compound 2 comprises a difference in the melting temperature Tm (corresponding to the temperature at which the concentrations of folded and unfolded protein are equal) with respect to EphA3 of 11.44 °C (Δ Tm), whereas prior art compounds 17 and 87 presented differences in the melting temperature Tm with respect to EphA3 of 1.6 and 0.7 °C, respectively.

[6] = system: MDA-MB-231 breast cancer cells; assay: Efficacy in a Xenograft Mouse Model; type: in vivo; conditions: female NCr Nu/Nu mice, subcutaneous MDA-MB-231, 50 mg/kg oral twice daily, 21 days
Description: The effect of compound 2 on MDA-MB-231 breast cancer cells was examined. The breast cancer cells were implanted subcutaneously in xenograft mouse models and the development of the body weight and the tumor volume were observed over time (21 days). Group 1 is the vehicle control group consisting of 9 animals, whereas group 2 consisted of 9 animals receiving 50 mg/kg of compound 2 twice-daily.
9 week old female NCr Nu/Nu mice (Charles River Laboratories, Inc.) were injected at the flank with 5x10^6 MDA-MB-231 cells. Once tumor volume reached 108-126 mm^3 (as measured by digital caliper) mice were randomized into a treatment and vehicle-control group of 9 animals each. The treatment group received oral doses of 50 mg/kg of compound 2 twice daily for 21 days (with the exception of a single dose on the first day), formulated as a homogeneous suspension in DMSO/1% methylcellulose (5/95, v/v). The control group received the same formulation but excluding compound 2. Tumor volume of all mice was evaluated bi-weekly up to day 19.

Cc1ccc(O)cc1-n1c(N)c(C(N)=O)c2nc3ccccc3nc21 [Compound 2, 2-Amino-1-(5-hydroxy-2-methylphenyl)-1H-pyrrolo[2,3-b]quinoxaline-3-carboxamide]
GI50 [1]: 0.49 µM | GI50 [2]: 2.64 µM | GI50 [3]: 1.55 µM | GI50 [4]: 5.88 µM | ΔTm at 20 µM [5]: 11.4 °C | group-median tumor volume [6]: remarkable group-median tumor volume control
